Test results: patent publication US5608095A, “Alkyl-4-silyl-phenols and esters thereof as antiatherosclerotic agents” (Hoechst Marion Roussel, Inc., priority 1996, dated 1997)
Read-outs that look alike come from different tables or passages of the source.

Key:
[1] = tested on: VCAM-1; experiment: Cell surface ELISA for VCAM-1 in human umbilical vein endothelial cells (HUVEC), TNF-alpha induced; assay type: cell-based; conditions: 50 μM, average of three runs
Procedure: (§1) Cell Surface ELISA for VCAM-1/ICAM-1
(§2) Proliferating human umbilical vein endothelial cells (HUVEC) or human aortic smooth muscle cells (HASMC) from Clonetics (San Diego, Calif.) were plated onto 96-well plates in 100 μL medium per well at 20,000 cells per cm^2. The cultures were maintained in growth medium (EGM or SMGM2, Clonetics, San Diego, Calif.) for two days prior to addition of cytokines or drugs. Cytokines plus or minus compounds were added for 20 to 24 hours prior to analysis for adhesion molecule levels. Tumor necrosis factor (Genzyme, Cambridge, Mass.) was added to cultures at 500-1000 units/mL. Interleukin-4 (GIBCO-BRL, Gaithersburg, Md.) was added to cultures at 100-200 pg/mL. (Additions were made by transferring 100 [μL of cytokines plus compounds serially diluted on a separate 96-well plate into the plates containing cells. The medium on the cultures was not exchanged prior to addition of effectors). The culture medium was removed, and the monolayers were washed twice with Hanks buffered saline solution (HBSS) at room temperature. The primary antibody (anti-human VCAM-1 from Upstate Biotechnology, Inc., Lake Placid, N.Y. or anti-human ICAM-1 from Immunotech, Inc., Westbrook, Me.) was added to each well (1 μg/mL in HBSS plus 5% newborn calf serum, GIBCO-BRL, Gaithersburg, Md.) and incubated at 37° C. for 1 hr. The wells were washed twice with HBSS, then 100 μL of a 1/1000 dilution of goat anti-mouse IgG conjugated to horse radish peroxidase (BioRad, Hercules, Calif.) in HBSS plus 5% newborn calf serum was added to each well and incubated for 1 hr at 37° C. The wells were washed three times with HBSS, then 100 μL of TMB substrate (BioRad, Hercules, Calif.) was added to each well. The reaction was stopped after blue color developed by addition of 50 μL of 1N H2 SO4. Absorbance is measured at 450 nm with a plate reader. IC50 values were determined from curves of absorbance values obtained from serial dilutions of compounds (dissolved in dimethyl sulfoxide).
(§3) The IC50 value is defined as the drug concentration that inhibits the cytokine-induced adhesion molecule expression by 50%. Maximal values for adhesion molecule expression in cytokine-induced cultures was […] the basal level of adhesion molecule expression (minus cytokines) in the cultures to determine the level of induction. […] Each drug concentration was tested in quadruplicate wells. Single point tests of compounds at 50 μM were assayed as described for IC50 determinations, except that the data represent the level of inhibition without correction for basal expression. (Basal adhesion molecule expression was 10-20% of the total induced expression). Table 1 summarizes the ability of various compounds of this invention to inhibit VCAM-1 using human aortic smooth muscle cells (HASMC). In these experiments, the cells were coincubated with interleukin-4 and the compounds listed about 20 hr before assaying cell surface VCAM-1 levels. Each column represents a separate experiment.
(§4) In these experiments, the cells were coincubated with tumor necrosis factor-alpha along with the indicated compounds about 20 to 24 hr before assaying cell surface adhesion molecule expression.

[2] = tested on: ICAM-1; experiment: Cell surface ELISA for ICAM-1 in human umbilical vein endothelial cells (HUVEC), TNF-alpha induced; assay type: cell-based; conditions: 50 μM, average of two runs, numbers in parentheses represent negative values
Procedure: as §1, §2, §3, §4

[3] = tested on: VCAM-1; experiment: Cell surface ELISA for VCAM-1 in human aortic smooth muscle cells (HASMC), interleukin-4 induced; assay type: cell-based; conditions: 50 μm; for VCAM-1 (Avg.) % inh.: average of HSMC-1 to HSMC-3; for HSMC-1 % inh. of VCAM-1: experiment HSMC-1, interleukin-4, about 20 hr; for HSMC-2 % inh. of VCAM-1: experiment HSMC-2, interleukin-4, about 20 hr; for HSMC-3 % inh. of VCAM-1: experiment HSMC-3, interleukin-4, about 20 hr
Procedure: as §1, §2, §3

[4] = tested on: oxidation of serum lipids; experiment: TBARS assay, serum of cholesterol-fed rabbits; assay type: in vivo, female New Zealand White rabbits; conditions: Oryctolagus cuniculus, po, 168 h, rabbit serum, 7 days, read-out: TBARS, percent of control
Procedure: (§5) Five independent experiments were performed in the following manner. […] Female New Zealand White rabbits (Hazelton, ~2.0-2.3 kg) were fed 0.2% cholesterol enriched rabbit chow (Purina #5322) with or without 0.4% MDL compound (except, MDL 108,804 at 0.26% and MDL 103,491 repeated at 0.6%). The MDL compounds were solubilized in 100% ethanol. MDL 108,208 was not soluble in 100% ethanol, but it was soluble in diethyl ether:ethanol (3:2 by volume). The chow was sprayed with the MDL mixtures and allowed to dry overnight in a chemical fume hood. Control chow was sprayed with ethanol. Rabbits were fed 100 grams food per day for 7 days (0.6% MDL 103,491 were fed for 14 days); water was available ad libitum. On day 7, rabbits (fasted overnight) were bled (~2 mL) from marginal ear vein; 0.6% MDL 103,491 treated rabbits were tested on day 14. They were euthanized by carbon dioxide overdose. The total body and liver weights were recorded in grams. Food consumption was recorded as grams.cndot.day^-1 .cndot.rabbit^-1. Aliquots of fresh serum were used for clinical chemistries, lipoprotein cholesterol determination, thiobarbituric acid reactive substances (TBARS) and compound and metabolite concentrations in serum. Livers (~5 gram aliquots) were frozen at -20° C. for compound and metabolite concentration determination at a later time.
TBARS are a qualitative indication of the oxidation of lipids in a sample. In this assay the oxidation of serum lipids is initiated with CuSO4, resulting in the formation of aldehydes, such as malondialdehyde (MDA). Upon incubation with thiobarbituric acid, the absorbance of the aldehydes can be detected at 530-540 nm. TBARS values which are lower than control serum values indicate the relative ability of a compound to inhibit the oxidation. TBARS were measured as follows: 50 μL of serum were mixed with 50 μL of 0.9% saline and 400 μL of a 5 mM CuSO4 solution and incubated at 37° C. for 5 hr. The reactions were stopped by addition of 1.0 mL of 20% trichloroacetic acid. Then 1.0 mL of 0.67% thiobarbituric acid in 0.05N sodium hydroxide was added, mixed, and the samples incubated for 30 min at 90° C. Samples were centrifuged briefly to pellet undissolved material, and the supernatants were transferred to a 96-well microtiter plate. Absorbances were measured at 540 nm using a Biotek model EL311 microplate reader. The nmoles of MDA produced were calculated from a standard curve of 0 to 10 nmoles of MDA prepared from malonaldehyde bis(dimethylacetal). Serum samples from treated rabbits were compared to serum samples from control rabbits that received no MDL compound.

[5] = HPLC quantitation of compound and metabolite concentration in rabbit serum and liver; assay type: in vivo, female New Zealand White rabbits; conditions: 7 days; for Liver Parent = parent compound concentration: rabbit liver; for Serum Parent = parent compound concentration: rabbit serum
Procedure: as §5
Serum and liver concentrations of parent compounds and the metabolites, bisphenol and diphenoquinone, were determined by reverse phase HPLC using a Waters 990 Powerline system. Livers (1 gram) were homogenized with 5.0 mL PBS, pH 7.4, using a Polytron tissue homogenizer at setting 5 for 20-30 seconds. Serum or liver homogenates were extracted as follows: 100 μL of either serum or homogenate were added to 2.0 mL diethyl ether:ethanol (3:1) while vortexing the tube. The sample tubes were capped and centrifuged for 10 min at 5° C. at 3500 rpm in a Beckman GPKR centrifuge with a GH 3.7 rotor. The supernatants were transferred to clean tubes and dried under N2. Samples were reconstituted with 200 μL of acetonitrile:hexane:0.1M ammonium acetate (90:6.5:3.5, by vol.). Then, 100 μL were injected onto a Waters Deltapak C18-300 Å column, and eluted with an 83% acetonitrile:17% water mobile phase at a flow rate of 1.5 mL/min. Absrobances at the wavelengths of 240, 254, and 420 nm were recorded. Compound concentrations were calculated from known quantities of authentic parent compounds after correction for recovery; the range of recovery from spiked samples was 40 to 100%. The lowest detectable limit for this class of compounds was ~0.5 μg/mL. Concentrations were calculated as μg/mL of serum and μg/g of liver.

[6] = Food consumption, body and liver weight in cholesterol-fed rabbits; assay type: in vivo, female New Zealand White rabbits; conditions: 7 days; for body wt., percent of control / lw/bw (liver weight/body weight), percent of control: rabbit
Procedure: as §5

[7] = tested on: serum cholesterol, LDL, HDL, triglycerides; experiment: Serum lipids and lipoprotein cholesterol in cholesterol-fed female New Zealand White rabbits; assay type: in vivo; conditions: Oryctolagus cuniculus, po, 168 h, rabbit serum, 7 days; for response vs control in vivo at 0.4 %: diet 0.4%; for response vs control in vivo at 0.26 %: diet 0.26%
Procedure: as §5
Blood was allowed to clot at room temperature for 30 minutes. Serum was obtained after centrifugation for 10 min at 5° C. at 3000 rpm in a Beckman GPKR centrifuge with a GH rotor. Fresh serum was analyzed by a COBAS MIRA autoanalyzer (Roche Diagnostics) using Roche diagnostic reagents for total cholesterol (CHOL, kit #44334) and triglyceride (TG, kit #44120). Cholesterol and triglycerides were calculated as mg/dL.
Lipoprotein fractions (very low density lipoprotein, VLDL, low density lipoprotein, LDL and high density lipoprotein, HDL) were separated on a Sepharose 6HR column (1×30 cm, Pharmacia) attached to a Waters Powerline HPLC system. Fifty μL of serum were injected onto the column and eluted with phosphate buffered saline, pH 7.4, at a flow rate of 0.5 mL/min. Cholesterol reagent (Roche Diagnostics, kit #44334, diluted with 20 mL water and then with 20 mL of 0.9% saline) was added at 0.2 mL/min to the post column eluant and incubated in a knitted PFTE Kratos reaction coil (Applied Biosystems) at 37° C. for 5 min. Absorbance was measured at 500 nm. The lipoprotein subfractions were quantitated as follows: [formula]

[8] = read-out: HDL cholesterol, percent of control
[9] = read-out: LDL cholesterol, percent of control
[10] = read-out: TRIG (triglycerides), percent of control
[11] = read-out: chol tot. (total cholesterol), percent of control

## Cc1cc(O)c(C)c(C)c1OC[Si](C)(C)c1ccccc1 [MDL 103,653, 2,3,5-Trimethyl-4-[(dimethylphenylsilyl)methyloxy]phenol]
[1]
  VCAM-1 % inh.: 37.7%
[2]
  ICAM-1 % inh.: 78.5%
[3]
  VCAM-1 (Avg.) % inh.: 56.4%
  HSMC-1 % inh. of VCAM-1: 63.1%
  HSMC-2 % inh. of VCAM-1: 54.0%
  HSMC-3 % inh. of VCAM-1: 52.0%

## CC(C)(C)c1cc(SC[Si](C)(C)C)cc(C(C)(C)C)c1OC(=O)CCC(=O)O [MDL 104,863, 2,6-Di-t-butyl-4-[(trimethylsilyl)methylthio]phenol succinic acid ester]
[1]
  VCAM-1 % inh.: 44.3%
[2]
  ICAM-1 % inh.: 53%
[3]
  VCAM-1 (Avg.) % inh.: 54.8%
  HSMC-1 % inh. of VCAM-1: 56.5%
  HSMC-2 % inh. of VCAM-1: 52.0%
  HSMC-3 % inh. of VCAM-1: 56.0%

## CC(C)(C)c1cc(OC[Si](C)(c2ccccc2)c2ccccc2)ccc1O [MDL 107,917, 2-t-butyl-4-[(diphenylmethylsilyl)methyloxy]phenol]
[4]; diet 0.4%
  response vs control in vivo at 0.4 %: 68%
[5]; diet 0.4%
  Liver Parent = parent compound concentration: 0 µg/g
  Serum Parent = parent compound concentration: 0 µg/mL
[6]; diet 0.4%
  food (grams eaten per day per rabbit), percent of control: 100%
  body wt., percent of control: 99%
  lw/bw (liver weight/body weight), percent of control: 106%
[7]; [8]
  response vs control in vivo at 0.4 %: 86%
[7]; [9]
  response vs control in vivo at 0.4 %: 165%
[7]; [10]
  response vs control in vivo at 0.4 %: 129%
[7]; [11]
  response vs control in vivo at 0.4 %: 151%

## CC(C)(C)c1cc(OC[Si](C)(C)Cc2ccccc2)ccc1O [MDL 108,804, 2-t-butyl-4-[(dimethylbenzylsilyl)methyloxy]phenol]
[4]; diet 0.26%
  response vs control in vivo at 0.26 %: 49%
[5]; diet 0.26%
  Liver Parent = parent compound concentration: 0 µg/g
  Serum Parent = parent compound concentration: 0 µg/mL
[6]; diet 0.26%
  food (grams eaten per day per rabbit), percent of control: 100%
  body wt., percent of control: 101%
  lw/bw (liver weight/body weight), percent of control: 96%
[7]; [8]
  response vs control in vivo at 0.26 %: 109%
[7]; [9]
  response vs control in vivo at 0.26 %: 82%
[7]; [10]
  response vs control in vivo at 0.26 %: 143%
[7]; [11]
  response vs control in vivo at 0.26 %: 91%
